Experimental data reported in PMC5531494, “Target specificity, in vivo pharmacokinetics, and efficacy of the putative STAT3 inhibitor LY5 in osteosarcoma, Ewing's sarcoma, and rhabdomyosarcoma” (PLoS ONE, 2017).

Key:
STAT6 = target: T1, STAT6 (Homo sapiens, UniProt P42226); assay: Cytokine-induced STAT6 phosphorylation in SJSA cells, Western blot; type: cell-based; conditions: induced by IFN-γ, IFN-α, or IL-4
T1 construct: endogenous in cells; host or cells: SJSA
Description: (§1) Cell lysis, protein isolation and immunoblotting were performed as described previously. Twenty micrograms of protein were resolved using 4–12% Bis-Tris polyacrylamide gels. Gels were transferred to PVDF membranes and subjected to blocking and incubation with primary and secondary antibodies. The primary antibodies used in this study included: phospho-STAT3 (Tyr705, Cell Signaling, Boston, MA and Abcam, Cambridge, MA), total STAT3 (Cell Signaling and Abcam), phospho-STAT1 (Cell Signaling), total STAT1 (Cell Signaling), phospho-STAT2 (Cell Signaling), phospho-STAT4 (Cell Signaling), phospho-STAT6 (Cell Signaling), and GAPDH (Cell Signaling). Protein bands were detected using Western Lightning ® Plus Enhanced Chemiluminescence substrate (Perkin Elmer, Waltham, MA) and HyBlot CL ® Autoradiography film (Denville Scientific, Holliston, MA). The cytokines used in this study included: interferon gamma (IFN-γ, Cell Signaling), interferon alpha (IFN-α, Cell Signaling), interleukin-4 (IL-4, Cell Signaling), interleukin-6 (IL-6, Cell Signaling), and oncostatin M (OSM, Cell Signaling).
(§2) Fig 1 LY5 inhibits pSTAT3 in sarcoma cell lines. (A) The tumor cell lines RH30, EW8, and RD were treated with increasing concentrations of LY5 for 30 minutes. Cell lysates were collected for Western blotting of p-STAT3, total STAT3, and GAPDH. GAPDH was used as loading control. […]

K7M2 cells = assay: Sulforhodamine B cytotoxicity / cell viability assay; type: cell-based, murine; conditions: Mus musculus
Description: (§3) Murine K7M2 and human MG63.3 OS cells were treated with increasing concentrations of LY5 for 2 hrs or 7 hrs. Western blotting was performed for pSTAT3 and STAT3 as indicated above to confirm inhibition of STAT3 phosphorylation in the cell lines prior to initiation of the PuMA assay. In addition, a sulforhodamine B colorimetric assay was performed to assess the cytotoxicity of LY5 in K7M2 and MG63.3 cells as previously described.
(§4) MG63.3 and K7M2 cell lines were exposed to increasing concentrations of LY5 to determine the IC50 (A). Western blot analysis was performed to determine the dose and duration of LY5 exposure required to inhibit STAT3 phosphorylation (B-C). Serial imaging of fluorescently labeled MG63.3 and K7M2 cells was performed in ex vivo LY5 treated lung sections (D). Metastatic burden was quantified by evaluation of the percent tumor burden (mean normalized fluorescent area). Data are reported as the mean ± standard deviation. In MG 63.3 experiment, p < 0.0001 Kruskal-Wallis test, p < 0.05 10 μM vs control at days 7, 14, and 21, 10 μM vs 1 μM at days 7, 14, and 21, 50 μM vs control at days 7, 14, and 21, and 50 μM vs 10 μM at days 7, 14, and 21 post-test Dunn. In K7M2 experiment, p < 0.0001 Kruskal-Wallis test, p < 0.05 10 μM vs control at days 14 and 21, 10 μM vs 0.1 μM at days 14 and 21, and 10 μM vs 1 μM at days 14 and 21, post-test Dunn.

MG63.3 cells = assay: Ex vivo pulmonary metastasis assay (PuMA); type: cell-based, human; conditions: MG 63.3, 10 μM and 50 μM LY5, up to 21 days
Description: GFP-positive K7M2 and MG63.3 cells (3 x 10^5 MG63.3; 5 x 10^5 K7M2) were administered via tail vein injection into mice. Following humane euthanasia, the lungs were insufflated with a culture medium/agarose mixture to a constant hydrostatic pressure of 20 cm H2O and prepared for ex vivo culture as previously described. Lung sections were cultured in complete media containing LY5 (0, 0.1, 1, 10 or 50 μM) on sterile Gelfoam using 6 lung sections per treatment condition. Media was changed every 48 hrs and lung slices were imaged with a fluorescent microscope every 7 days for a total of 21 days.
as §4, with “In K7M2 experiment, p < 0.0001 Kruskal-Wallis test, p < 0.05 10 μM vs control at days 14 and 21, 10 μM vs 0.1 μM at days 14 and 21, and 10 μM vs 1 μM at days 14 and 21, post-test Dunn.” left out

STAT3 [1] = target: T2, STAT3 (Homo sapiens, UniProt P40763); assay: IL-6 / OSM induced STAT3 phosphorylation in SJSA cells, Western blot; type: cell-based; design: endogenous in cells; conditions: LY5 two hours then 50 ng/mL cytokine 30 minutes
Description: as §1, §2

STAT3 [2] = target: T2, STAT3; assay: Western blot of pSTAT3 in MG63.3 cells; type: cell-based; design: endogenous in cells; host or cells: MG63.3
Description: as §3, §4

STAT3 [3] = target: T2, STAT3; assay: pSTAT3 in pulmonary metastatic lesions, IHC and Western blotting; type: in vivo, mice; design: from tissue; host or cells: OS-17-luc lung metastases and OS-1 subcutaneous PDX tumours in C.B-17 scid mice; conditions: 20 mg/kg LY5 daily for 30 days; immunohistochemistry and Western blotting
Description: The ability of LY5 to inhibit pulmonary metastases was evaluated using a murine model of OS pulmonary metastasis. 8-week-old C.B-17 scid -/- female mice (Envigo, Madison, WI) received IV inoculation with 10^6 OS-17-luc cells expressing a luciferase reporter gene. OS-17-luc cells were generated by infecting OS-17 wild type cells with lentivirus containing the firefly luciferase under a CMV promoter (Cellomics Technology, Hallethorpe, MD) and selected with 0.5 ug/mL puromycin (Thermo Fisher Scientific, Waltham, MA). Beginning 24 hrs after inoculation, mice received vehicle (n = 10) or 20 mg/kg LY5 once daily via oral gavage (n = 9, one mouse died within 24 hrs after cell inoculation). LY5 was prepared by diluting a 40 mg/mL solution/slurry with a 50% propylene glycol/1% Tween 20 in water vehicle immediately before administration. Mice were treated with LY5 for 30 days, and bioluminescent imaging (after IP luciferin administration) was performed to determine pulmonary metastatic disease load. To investigate the pharmacodynamics (PD) effects of LY5, pSTAT3 (p-Tyr705, ab76315, Abcam) and total STAT3 (ab119352, Abcam) were evaluated in pulmonary metastatic lesions using IHC in lung samples from mice euthanized 24 hrs after their last dose.
(A-B) IHC staining of lung metastasis from mice treated with LY5. The metastatic tumor sections were stained with pSTAT3 or hematoxylin and eosin. […]

T2 sequence (P40763 whole entry): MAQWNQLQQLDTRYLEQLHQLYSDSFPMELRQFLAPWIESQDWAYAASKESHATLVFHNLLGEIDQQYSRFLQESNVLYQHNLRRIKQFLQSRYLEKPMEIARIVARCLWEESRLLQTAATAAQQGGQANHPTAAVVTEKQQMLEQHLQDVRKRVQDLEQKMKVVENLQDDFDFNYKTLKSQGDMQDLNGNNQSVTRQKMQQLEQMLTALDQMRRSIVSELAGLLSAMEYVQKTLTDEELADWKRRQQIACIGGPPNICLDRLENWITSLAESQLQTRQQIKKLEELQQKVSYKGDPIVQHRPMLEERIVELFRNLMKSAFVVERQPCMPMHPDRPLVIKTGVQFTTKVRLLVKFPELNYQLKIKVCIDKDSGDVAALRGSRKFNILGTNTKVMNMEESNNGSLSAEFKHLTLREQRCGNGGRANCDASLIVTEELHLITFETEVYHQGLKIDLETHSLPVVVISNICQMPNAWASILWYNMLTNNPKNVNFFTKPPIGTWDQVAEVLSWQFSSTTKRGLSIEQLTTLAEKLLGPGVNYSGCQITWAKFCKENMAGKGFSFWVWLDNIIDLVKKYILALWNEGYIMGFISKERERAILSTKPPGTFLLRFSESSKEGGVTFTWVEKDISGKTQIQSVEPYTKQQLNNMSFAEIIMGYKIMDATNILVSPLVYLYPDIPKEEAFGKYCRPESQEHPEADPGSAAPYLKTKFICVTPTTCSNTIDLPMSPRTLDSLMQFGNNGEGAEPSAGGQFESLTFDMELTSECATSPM
T1 sequence (P42226 whole entry): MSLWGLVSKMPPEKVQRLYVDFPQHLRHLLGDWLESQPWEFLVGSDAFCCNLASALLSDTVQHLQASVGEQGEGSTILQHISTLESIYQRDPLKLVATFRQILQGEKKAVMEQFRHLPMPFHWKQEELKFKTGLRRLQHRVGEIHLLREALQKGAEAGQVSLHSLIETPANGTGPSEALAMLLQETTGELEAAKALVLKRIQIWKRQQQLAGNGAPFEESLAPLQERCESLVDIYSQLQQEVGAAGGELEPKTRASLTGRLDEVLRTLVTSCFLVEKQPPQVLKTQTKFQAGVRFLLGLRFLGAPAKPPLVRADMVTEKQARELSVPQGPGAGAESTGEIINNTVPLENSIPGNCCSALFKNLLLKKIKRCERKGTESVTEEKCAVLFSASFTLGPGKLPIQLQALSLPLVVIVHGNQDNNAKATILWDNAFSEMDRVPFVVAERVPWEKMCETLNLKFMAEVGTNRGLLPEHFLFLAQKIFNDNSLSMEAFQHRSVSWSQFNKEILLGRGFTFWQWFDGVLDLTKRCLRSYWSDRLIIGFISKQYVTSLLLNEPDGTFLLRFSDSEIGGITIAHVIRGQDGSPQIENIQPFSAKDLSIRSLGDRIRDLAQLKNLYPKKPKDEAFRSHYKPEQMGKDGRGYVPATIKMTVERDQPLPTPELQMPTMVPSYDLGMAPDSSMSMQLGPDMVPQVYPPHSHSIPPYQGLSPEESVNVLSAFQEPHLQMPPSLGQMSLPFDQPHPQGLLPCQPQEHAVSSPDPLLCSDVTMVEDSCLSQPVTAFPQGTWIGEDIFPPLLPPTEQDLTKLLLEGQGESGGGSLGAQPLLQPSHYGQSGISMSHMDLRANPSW

NS(=O)(=O)c1cccc2c1C(=O)C=C(Nc1cccnc1)C2=O [LY5, 5,8-dioxo-6-(pyridin-3-ylamino)-5,8-dihydronaphthalene-1-sulfonamide]
phosphorylation of STAT6 (STAT6): did not inhibit
IC50 (K7M2 cells): 1500 nM
percent tumor burden in PuMA (MG63.3 cells): significantly decreased
IL-6 and OSM induced STAT3 phosphorylation (STAT3 [1]): effectively blocked
exposure time for effective inhibition of STAT3 phosphorylation (STAT3 [2]; MG 63.3, 1 μM LY5): 0.5 h
concentration that decreased STAT3 phosphorylation (STAT3 [2]; MG63.3, 2 hrs treatment): 1 µM
STAT3 phosphorylation in pulmonary metastatic lesions (STAT3 [3]): inhibited STAT3 phosphorylation
